From PMC6124754, “Characterization of new, efficient Mycobacterium tuberculosis topoisomerase-I inhibitors and their interaction with human ABC multidrug transporters” (PLoS ONE, 2018)
≈ marks a conversion by molar mass, not a printed value. Entries after “also recorded” stand apart in the source; their conditions may differ. Read-outs that look alike come from different tables or passages of the source.

How the values were obtained:
[1] = system: ABCG2-overexpressing A431 cell line; details: 72 h; for ABC transporter modified cytotoxicity, ABCG2 (summary): human; for Resistance modulation by ABCG2 (fold increase in IC50): ABCG2-expressing versus parental A431 cells
human ABCG2 [2] = molecular target: T1, human ABCG2 (Homo sapiens, UniProt Q9UNQ0); assay: Vanadate-sensitive ATPase activity assay in Sf9 membrane vesicles, ABCG2; format: biochemical; design: made in house; host or cells: Sf9 insect cells (baculovirus), membrane vesicles; ABCG2 ATPase, concentration at Vmax: unit not given here; details: for ABC transporter ATPase assay, ABCG2 (summary): S6 summary table; for Effect on ABCG2-ATPase activity (in words): Sf9 membrane vesicles, 0.1–10 μM for stimulation, 50 μM for inhibition; for ABCG2 ATPase Vmax: vanadate-sensitive ATPase, from dose-response curves, basal 22±1.4
T1 sequence (Q9UNQ0 1-655): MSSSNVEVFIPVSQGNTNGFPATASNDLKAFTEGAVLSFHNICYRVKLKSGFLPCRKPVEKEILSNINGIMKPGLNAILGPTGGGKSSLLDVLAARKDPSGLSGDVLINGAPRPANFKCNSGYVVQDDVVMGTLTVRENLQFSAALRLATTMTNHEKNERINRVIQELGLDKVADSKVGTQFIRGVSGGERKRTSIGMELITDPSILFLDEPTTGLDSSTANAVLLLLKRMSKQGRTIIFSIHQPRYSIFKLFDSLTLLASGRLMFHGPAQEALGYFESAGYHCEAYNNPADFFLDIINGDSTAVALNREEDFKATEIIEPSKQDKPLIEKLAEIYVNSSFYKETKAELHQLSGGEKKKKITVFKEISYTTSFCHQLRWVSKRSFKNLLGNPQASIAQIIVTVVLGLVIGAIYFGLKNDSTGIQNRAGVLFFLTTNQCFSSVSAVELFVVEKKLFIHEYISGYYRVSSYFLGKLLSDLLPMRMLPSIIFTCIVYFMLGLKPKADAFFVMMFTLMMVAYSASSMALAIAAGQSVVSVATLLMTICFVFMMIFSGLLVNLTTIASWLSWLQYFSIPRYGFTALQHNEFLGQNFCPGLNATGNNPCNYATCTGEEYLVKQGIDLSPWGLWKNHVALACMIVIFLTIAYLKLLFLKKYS

HEK293 cell line = assay: Cytotoxicity, PrestoBlue 72 h, HEK293; format: cell-based, human; details: Homo sapiens, HEK293, Non-toxic = not toxic up to 20 μM, read-out: Toxicity in HEK293 cell line, IC50
Experimental: (§1) The toxic effects of the selected MtTopo-I inhibitory Vichem compounds were tested in three cell lines, HFF (human foreskin fibroblast), HEK293 (human embryonic kidney) and A431 (human epidermoid carcinoma) cell lines, obtained from ATCC. Establishment of ABC transporter-expressing A431cell lines was achieved by retroviral transduction of the cells as described previously.
(§2) For cytotoxicity measurements the cells were seeded in a 96-well culture plate at 5,000 cells/well (A431, HEK293) or 6000 cells/well (HFF) and incubated overnight. […] After 72 hours of incubation viability was assessed by PrestoBlue® assay (Invitrogen). IC50 values were obtained by sigmoidal curve fitting in the GraphPad Prism software. All experiments were performed in triplicates and repeated at least in three independent experiments. DMSO, used as solvent of the compounds, had no effect on viability at the applied concentration.

[3] = system: HFF, HEK293 and A431 cell lines; format: cell-based, human
Experimental: as §1, §2

HFF cell line = assay: Cytotoxicity, PrestoBlue 72 h, HFF; format: cell-based, human; details: Non-toxic = not toxic up to 20 μM, read-out: Toxicity in HFF cell line, IC50
Experimental: as §1, §2

human ABCB1 [4] = molecular target: T2, human ABCB1 (Homo sapiens, UniProt P08183); assay: Cellular transport assay, Calcein-AM uptake in ABCB1-overexpressing PLB cells; format: cell-based; details: S6 summary table; further: key: 0: no observed effect; +: effect observed in the assay; In the ATPase assay showing only inhibition, the - sign is applied
Experimental: (§3) For cellular transport assays, mammalian PLB (lymphoblastoid) cell lines, overexpressing ABCB1 or ABCG2 were used. The parental PLB cell line was purchased from ATCC, and ABCB1 or ABCG2 overexpressing cell lines were established by using lentiviral vectors for human ABC transporters as described earlier in [29]. The transport assays were carried out in 96-well plates. 1x10^5 cells were incubated in the presence of 0.1 μM Calcein-AM or 1 μM DCV (Dye Cycler Violet) for the ABCB1 and for the ABCG2 assays, respectively. The assay was performed in HPMI medium (NaCl 120 mM, KCl 5 mM, MgCl2 0.4 mM, CaCl2 0.04 mM, HEPES 10 mM, NaHCO3 10 mM, glucose 10 mM, Na2HPO4 5 mM; pH 7.4). Fluorescence of the cells was detected using a Victor X3 plate reader (for Calcein, exc. at 485 nm, em. at 535 nm) or the Enspire 2300 (Perkin Elmer) plate reader (for DCV, exc. at 360 nm, em. at 440 nm). Kinetics of fluorescence intensity changes were analyzed to determine relative inhibition, compared to that of a reference agent, providing full inhibition of the ABC transporter. Two of the Vichem compounds examined (VCC979812 and VCC38977) were not compatible with the DCV uptake assay because of their intrinsic fluorescence, therefore for these two compounds ABCG2 transport inhibition was characterized by following mitoxantrone uptake. Mitoxantrone uptake was measured by flow cytometry (BD FACSCanto at 633 nm) by 20 minutes incubation in the presence of 7.5 μM mitoxantrone. Each compound was measured in at least three independent experiments with three parallels in each case. DMSO, used as a solvent of compounds had no effect in this assay at the applied concentration.

parental A431 cell line = assay: Cytotoxicity, PrestoBlue 72 h, parental A431; format: cell-based, human; details: Non-toxic = not toxic up to 20 μM, read-out: Toxicity in parental A431 cell line, IC50
Experimental: as §1, §2

[5] = system: ABCB1-overexpressing A431 cell line; details: 72 h; for ABC transporter modified cytotoxicity, ABCB1 (summary): human; for Resistance modulation by ABCB1 (fold increase in IC50): ABCB1-expressing versus parental A431 cells
MtTopo-I = molecular target: T3, MtTopo-I (Mycobacterium tuberculosis, UniProt P9WG49); assay: DNA relaxation assay of supercoiled pUC18 DNA by MtTopo-I; format: biochemical; details: minimum concentration providing complete inhibition
T3 construct: made in house; host or cells: E. coli

H37Rv Mtb strain = assay: H37Rv growth inhibition, resazurin reduction microplate assay (REMA); format: cell-based, Mycobacterium tuberculosis; details: for MIC90: Mycobacterium tuberculosis, H37RV, minimum concentration providing 90% growth inhibition, 20 to 0.04 μM, N.I. = no inhibition observed up to 20 μM, read-out: MIC90 of compounds in H37Rv growth test; for Toxicity in H37Rv assay (summary): S6 summary table; for Growth inhibition of H37Rv mycobacteria (in words): tested up to 20 μM
human ABCG2 [6] = molecular target: T1, human ABCG2; assay: Cellular transport assay, DCV or mitoxantrone uptake in ABCG2-overexpressing PLB cells; format: cell-based; design: expressed in transfected cells; host or cells: PLB (human lymphoblastoid) cells, lentiviral transduction; details: S6 summary table; further: key: 0: no observed effect; +: effect observed in the assay; In the ATPase assay showing only inhibition, the - sign is applied
Experimental: as §3

human ABCB1 [7] = molecular target: T2, human ABCB1; assay: Vanadate-sensitive ATPase activity assay in Sf9 membrane vesicles, ABCB1; format: biochemical; design: made in house; host or cells: Sf9 insect cells (baculovirus), membrane vesicles; ABCB1 ATPase Vmax: unit not given here; details: for ABC transporter ATPase assay, ABCB1 (summary): S6 summary table; for Effect on ABCB1-ATPase activity (in words): Sf9 membrane vesicles, 0.1–10 μM for the stimulation in b53; for ABCB1 ATPase Vmax: vanadate-sensitive ATPase, from dose-response curves, basal 5.7±0.7; on ABC transporter ATPase assay, ABCB1 (summary): key: 0: no observed effect; +: effect observed in the assay; In the ATPase assay showing only inhibition, the - sign is applied
[8] = concentration at which Vmax was seen

T2 sequence (P08183 whole entry): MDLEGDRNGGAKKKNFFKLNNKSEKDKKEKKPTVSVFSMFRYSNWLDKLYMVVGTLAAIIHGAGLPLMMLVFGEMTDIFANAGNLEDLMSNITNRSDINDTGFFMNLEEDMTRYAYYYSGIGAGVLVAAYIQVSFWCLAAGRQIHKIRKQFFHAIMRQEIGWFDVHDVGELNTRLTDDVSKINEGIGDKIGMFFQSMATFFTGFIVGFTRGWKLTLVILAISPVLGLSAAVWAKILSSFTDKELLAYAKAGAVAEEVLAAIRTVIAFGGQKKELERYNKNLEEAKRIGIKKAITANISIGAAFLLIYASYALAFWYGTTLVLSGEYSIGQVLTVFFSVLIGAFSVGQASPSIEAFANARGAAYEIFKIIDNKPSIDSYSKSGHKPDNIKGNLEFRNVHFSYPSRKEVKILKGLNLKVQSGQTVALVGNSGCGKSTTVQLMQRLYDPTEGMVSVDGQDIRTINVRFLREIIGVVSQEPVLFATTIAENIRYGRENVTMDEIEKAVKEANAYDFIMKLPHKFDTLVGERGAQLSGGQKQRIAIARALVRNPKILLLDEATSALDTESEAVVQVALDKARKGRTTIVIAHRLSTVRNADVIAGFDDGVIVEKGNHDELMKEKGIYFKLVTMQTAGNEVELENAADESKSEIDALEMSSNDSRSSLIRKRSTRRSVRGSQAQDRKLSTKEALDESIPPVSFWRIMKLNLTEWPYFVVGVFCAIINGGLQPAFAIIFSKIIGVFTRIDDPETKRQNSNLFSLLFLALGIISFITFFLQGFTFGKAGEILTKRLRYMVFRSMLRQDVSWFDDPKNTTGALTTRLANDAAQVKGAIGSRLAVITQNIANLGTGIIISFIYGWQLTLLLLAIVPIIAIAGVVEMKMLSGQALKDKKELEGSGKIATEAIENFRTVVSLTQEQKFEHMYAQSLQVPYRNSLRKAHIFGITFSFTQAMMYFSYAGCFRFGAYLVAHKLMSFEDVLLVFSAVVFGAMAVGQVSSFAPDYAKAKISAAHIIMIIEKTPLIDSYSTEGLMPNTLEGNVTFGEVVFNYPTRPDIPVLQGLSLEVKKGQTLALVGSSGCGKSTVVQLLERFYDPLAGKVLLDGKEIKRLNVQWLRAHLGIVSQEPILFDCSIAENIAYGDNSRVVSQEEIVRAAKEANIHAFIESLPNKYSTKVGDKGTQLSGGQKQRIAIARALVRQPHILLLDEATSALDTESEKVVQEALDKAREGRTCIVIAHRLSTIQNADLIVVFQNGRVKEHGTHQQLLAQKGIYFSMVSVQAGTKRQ
T3 sequence (P9WG49 whole entry): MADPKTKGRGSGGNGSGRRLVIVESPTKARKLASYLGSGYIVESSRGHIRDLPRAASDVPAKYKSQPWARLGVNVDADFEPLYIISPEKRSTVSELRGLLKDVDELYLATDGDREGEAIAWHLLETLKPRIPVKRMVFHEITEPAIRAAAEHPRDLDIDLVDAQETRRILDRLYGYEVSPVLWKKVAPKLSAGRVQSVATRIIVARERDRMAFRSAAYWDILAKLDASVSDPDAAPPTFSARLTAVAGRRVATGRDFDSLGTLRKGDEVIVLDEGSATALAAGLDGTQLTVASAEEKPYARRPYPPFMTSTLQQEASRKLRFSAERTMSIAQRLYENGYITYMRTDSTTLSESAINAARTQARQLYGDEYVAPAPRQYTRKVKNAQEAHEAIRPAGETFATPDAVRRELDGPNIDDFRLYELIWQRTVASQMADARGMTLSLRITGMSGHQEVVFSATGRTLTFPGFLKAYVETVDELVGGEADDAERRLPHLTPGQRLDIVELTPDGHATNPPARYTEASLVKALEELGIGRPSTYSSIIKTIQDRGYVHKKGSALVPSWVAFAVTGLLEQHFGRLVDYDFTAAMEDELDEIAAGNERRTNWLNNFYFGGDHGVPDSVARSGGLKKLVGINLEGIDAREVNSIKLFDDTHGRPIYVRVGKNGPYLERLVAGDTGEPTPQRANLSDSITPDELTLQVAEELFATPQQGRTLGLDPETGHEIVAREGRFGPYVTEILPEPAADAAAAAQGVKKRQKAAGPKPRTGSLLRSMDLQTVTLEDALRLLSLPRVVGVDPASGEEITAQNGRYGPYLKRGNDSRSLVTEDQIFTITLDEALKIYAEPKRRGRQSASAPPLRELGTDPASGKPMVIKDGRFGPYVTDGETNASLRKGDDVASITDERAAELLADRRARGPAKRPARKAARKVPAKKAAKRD

Row | Compound | ABC transporter modified cytotoxicity, ABCG2 (summary) [1] | ABC transporter ATPase assay, ABCG2 (summary) (human ABCG2 [2]) | Effect on ABCG2-ATPase activity (in words) (human ABCG2 [2]) | ABCG2 ATPase Vmax (human ABCG2 [2]) | IC50 (HEK293 cell line) [µM] | Toxicity in human cell lines (in words) [3] | Toxicity in mammalian cell lines (summary) [3] | IC50 (HFF cell line; Homo sapiens, HFF) [µM] | IC50 (HFF cell line) [µM] | ABC transporter transport assay, ABCB1 (summary) (human ABCB1 [4]) | IC50 (parental A431 cell line; Homo sapiens, A-431, 72 h) [µM] | IC50 (parental A431 cell line) [µM] | ABC transporter modified cytotoxicity, ABCB1 (summary) [5] | Complete inhibition of MtTopoI (MtTopo-I) [µM] | MIC90 (H37Rv Mtb strain) [µM] | Toxicity in H37Rv assay (summary) (H37Rv Mtb strain) | Growth inhibition of H37Rv mycobacteria (in words) (H37Rv Mtb strain) | ABC transporter transport assay, ABCG2 (summary) (human ABCG2 [6]) | ABC transporter ATPase assay, ABCB1 (summary) (human ABCB1 [7]) | ABCB1 ATPase Vmax (human ABCB1 [7]) | also measured
1 | COc1ccc(/C=C/c2nc(NCCCN(C)C)c3cc4ccccc4cc3n2)cc1 [VCC340963] | 0 | 0 | no measurable effect | 22.2±4 | 10 to 20 | toxic | + | < 5 | 2.5 to 5 | + | < 5 | 3.23 | 0 | 10 to 25 | 2.5 (≈ 1.03 µg/mL) | + | effectively inhibited the growth | + | 0 | 7.9±1.2 | Effect on ABCB1-ATPase activity (in words) (human ABCB1 [7]): no measurable effect
2 | COc1ccc(/C=C/c2nc(NCCCN3CCOCC3)c3cc4ccccc4cc3n2)cc1 [VCC478498] | 0 | - | only an inhibition | 21.5±2.4 | 10 to 20 | toxic | + | < 5 | 2.5 to 5 | + | < 5 | 3.03 | 0 | 10 to 25 | 0.6 (≈ 0.273 µg/mL) | + | effectively inhibited the growth | + | 0 | 7.2±1.8 | ABCG2 ATPase, concentration at Vmax (human ABCG2 [2]; [8]): 2; ABCB1 ATPase, concentration at Vmax (human ABCB1 [7]; [8]): 6.25 µM
3 | CN(C)CCCNc1nc(/C=C/c2ccc(Cl)cc2)nc2cc3ccccc3cc12 [VCC450822] | 0 | 0 |  | 23.3±2 | 10 to 20 | toxic | + | < 5 | 2.5 to 5 | 0 | < 5 | 3.5 | 0 | 10.0 | 5.1 (≈ 2.13 µg/mL) | + | effectively inhibited the growth | 0 |  | 10.5±1.5 | Resistance modulation by ABCG2 (fold increase in IC50) [1]: 1.0±0.03; Resistance modulation by ABCG2 (fold increase in IC50) ([1]; listed as VCC480522): no difference; Resistance modulation by ABCB1 (fold increase in IC50) [5]: 0.97±0.05; Resistance modulation by ABCB1 (fold increase in IC50) ([5]; listed as VCC480522): no difference; Effect on ABCB1-ATPase activity (in words) (human ABCB1 [7]): well measurable stimulatory effect; also recorded: slight stimulation of the ABCB1-ATPase activity at lower concentrations; also recorded: strongly inhibited ATPase activity at higher concentrations; also recorded: slightly increased
